What was measured:
CAMA-1 cells = experiment: Sytox Green proliferation assay, CAMA-1; type: cell-based, human; settings: 7-day proliferation
Experimental: MCF7 and CAMA-1 cells were seeded into 96-well microplates in phenol red-free RPMI-1640 medium containing 2 mmol/L L-glutamine and 5% (v/v) charcoal-stripped FBS at 4×10^3 and 8×10^3 cells/well, based on the doubling time of each cell line. Plates were incubated for 24 hours (37°C; 5% CO2) and a 10-point concentration range of selected compounds was dispensed onto the cells. Dimethyl sulfoxide (DMSO) was dispensed into control wells to give a 0.1% final concentration. One plate was untreated, as a day 0 control. […] were counted at days 0 and 7 (or day 6 for Y537S ESR1m MCF7 cells) using Sytox Green nucleic assay stain (180 nmol/L per well). Green (dead) cells were counted at days 0 and 7 using an Acumen Explorer (TTP Labtech) or Cellinsight imager (Thermo Fisher Scientific). Saponin 0.045% (weight/volume) was added to permeabilize the cells overnight, permitting total cell count. The number of live cells was calculated by subtracting dead cells from the total cell count, and curve-fitted using GraphPad Prism. Average cell counts from the day 0 plate were used to determine 0% cell growth. A dose–response curve was plotted using non-linear regression to determine the IC50 and bottom-of-curve values. Viability assay methods are described in Supplementary Methods.

[1] = target: T1, ER in Ishikawa endometrial cancer cell line (Homo sapiens, UniProt P03372); experiment: ER degradation and agonism (PgR expression) in Ishikawa cells; type: cell-based
T1 sequence (P03372 1-595): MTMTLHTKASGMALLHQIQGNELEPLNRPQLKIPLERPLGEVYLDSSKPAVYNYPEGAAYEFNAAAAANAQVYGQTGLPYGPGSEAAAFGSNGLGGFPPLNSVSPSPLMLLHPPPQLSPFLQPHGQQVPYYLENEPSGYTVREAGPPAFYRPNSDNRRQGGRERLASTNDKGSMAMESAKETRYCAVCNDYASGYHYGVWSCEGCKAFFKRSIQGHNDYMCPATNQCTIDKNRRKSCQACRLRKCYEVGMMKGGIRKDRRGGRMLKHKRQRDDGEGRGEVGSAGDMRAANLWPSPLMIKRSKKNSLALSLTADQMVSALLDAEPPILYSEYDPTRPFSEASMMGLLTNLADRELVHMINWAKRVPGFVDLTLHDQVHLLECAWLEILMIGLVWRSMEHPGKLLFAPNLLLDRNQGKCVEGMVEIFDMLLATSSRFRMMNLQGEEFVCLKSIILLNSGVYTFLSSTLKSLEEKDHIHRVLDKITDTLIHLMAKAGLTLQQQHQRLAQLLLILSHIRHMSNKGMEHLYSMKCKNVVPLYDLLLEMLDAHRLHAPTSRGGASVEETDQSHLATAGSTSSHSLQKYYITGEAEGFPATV
Experimental: Cells were seeded into 12-well tissue culture-treated plates (0.5×10^6 cells/well) in phenol red-free RPMI medium containing 5% (v/v) charcoal-stripped FBS.
Cell lysates were loaded on NuPAGE 4% to 12% Bis-Tris Midi Protein Gels, transferred to nitrocellulose membranes and immunoblotted with anti-ER antibody (clone SP1, Thermo Fisher Scientific). To detect ER agonism, Ishikawa cells were incubated in media containing 5% (v/v) double charcoal-stripped FBS, achieved by stripping FBS using activated charcoal (C9157, Sigma). Blots were probed with anti-PgR antibody (clone 636, Dako) then horseradish peroxidase secondary antibody (anti-mouse, 7076 Cell Signaling Technology or anti-rabbit, 7070 Cell Signaling Technology). Protein levels were measured on the G-box using Pierce West Dura and West Femto chemiluminescent reagents and Syngene software.

[2] = test system: ER transcriptional activity; experiment: RNA-seq ER-regulated gene expression in MCF7 and CAMA-1 cells; type: cell-based, human; settings: 100 nmol/L + 1 nmol/L estradiol, 24 hours
Experimental: MCF7 and CAMA-1 cells were seeded into 6-well microplates in phenol red-free RPMI-1640 medium (Invitrogen) containing 2 mmol/L L-glutamine and 5% (volume/volume, v/v) charcoal-stripped FBS (Sigma). […] Samples were harvested in 1 mL of QIAzol lysis buffer and snap-frozen. Snap-frozen tissue from PDX studies was homogenized and resuspended in QIAzol lysis buffer. RNA was extracted using RNeasy 96 QIAcube HT total RNA Cell with DNAse treatment, and samples randomized over 96-well plates. RNA was quantified using the Qubit RNA BR kit (Q10213 Invitrogen), per the manufacturer's instructions.
[…], RNA integrity was analyzed on a TapeStation 4200 using the RNA 6000 Nano Kit (5067 1511, Agilent), according to the manufacturers’ instructions. The Illumina Truseq stranded mRNA library was generated by the Cancer Research UK Cambridge Institute Genomic core facility, and sequencing of cell lines was performed on the Illumina Hiseq4000 platform, providing single-end 50 base pair reads and around 20 million reads per sample. PDX samples were sequenced using Illumina NovaSeq600, providing paired-end 100 base pair reads and around 34 million reads per sample.
Quality control and gene expression quantification of RNA sequencing (RNA-seq) were performed using the RNA-seq pipeline implemented in bcbio-nextgen (https://bcbio-nextgen.readthedocs.org/en/latest/). Reads were aligned to the University of California (Santa Cruz, CA) Homo sapiens GRCh38 genome build, augmented with transcript information from Ensembl release 86 using HiSat2 ([31]). Alignments were evaluated for evenness of coverage, ribosomal RNA content, genomic context of alignments, and complexity, using a combination of FastQC, Qualimap, and custom computational tools ([32]). Transcripts per million measurements per isoform were generated by quasi-alignment using Salmon and were used to estimate the abundance of genes ([33]). The aggregated gene counts were used for differential gene expression analyses using DESeq2 ([34]).

ST3632 ESR1wt PDX = experiment: Efficacy in ST3632 PDX model; type: in vivo, mice; settings: oral camizestrant 10 mg/kg daily, palbociclib 50 mg/kg daily, abemaciclib 50 mg/kg daily
[3] = test system: MCF7 palbociclib-resistant cell lines (PC1, PC6, PC8); experiment: Cell Titer Glo viability in palbociclib-resistant MCF7 lines; type: cell-based, human; settings: 7 days
Experimental: B) Viability of CTC174 PDX-derived […]
organoids treated with the indicated drugs for 144 hours. Mean ± standard error of the mean (one experiment using six independent CTC174 organoid lines in three technical replicates). P values were calculated using two-tailed paired t tests of biological replicates. C) Immunoblots of CTC174 PDX tumors and quantification of ER, pS6, S6, or PCNA following treatment. Mean ± standard deviation (n=5). p values were calculated using ANOVA tests. D) Genetic backgrounds for cell lines with putative mechanism of resistance to palbociclib indicated for each cell line. Combination matrix plots […]
palbociclib or abemaciclib at indicated doses for 7 days using Cell Titer Glo viability assay. Values represent measured cell viability normalized to Day 0 (treatment day) and dimethyl sulfoxide control at Day 7. […]
protein levels measured by western blot. […]
dependent kinase 4/6 (inhibitor); Ctrl, control; del, deletion; ER, estrogen receptor; ESR1, estrogen receptor 1 gene; Everol, everolimus; MCL1, induced myeloid leukemia cell differentiation protein; mut, mutation; nd, not determined; Palbo, palbociclib; PCNA, proliferating cell nuclear antigen; PDX, patient-derived xenograft; PgR, progesterone receptor; PIK3CA, phosphatidylinositol 3-kinase subunit α; Rb, retinoblastoma; S6, Ribosomal protein S6; veh, vehicle; wt, wild-type […]
An untreated plate was read on […]

ST1799/HI/PBR PDX = experiment: Efficacy in palbociclib-resistant ST1799/HI/PBR PDX model; type: in vivo, mice; settings: camizestrant 10 mg/kg daily, palbociclib 50 mg/kg, abemaciclib 50 mg/kg, capivasertib 130 mg/kg, 40 days
Experimental: For all PDX models, tumors were measured twice weekly; changes in tumor volume and growth inhibition were determined by bilateral Vernier caliper measurement (length x width). Length was the longest diameter across the tumor and width the corresponding perpendicular.
For efficacy studies, animals were randomized into treatment groups and dosing started once tumor volume reached 150–300 mm^3. Details of efficacy studies, and group sizes and treatments are described in corresponding figure legends. PDX models in Fig. 6 and Supplementary Fig. S1 were part of the multi-arm study (with arms irrelevant to this publication) with common control monotherapy arms (e.g., the vehicle-treated group).
(TV) was calculated using the formula: TV (mm3) = (3.142 x max (length:width) x min […]
established tumors were removed from two donor mice and dissected into 3x3x3 mm pieces in RPMI 1640 media. […] TV was calculated as TV (mm3) = width2 x length x 0.52.
For the combination studies in the CTC174 PDX model (hormone-independent), established tumors were removed from donor mice and dissected into 3x3x3 mm pieces in RPMI 1640 media. […] TV was calculated using the formula: TV (mm3) = (3.142 x max (length:width) x min (length:width) x min (length:width))/6,000, or (mm3) = width2 x length x 0.52 for the CTC174 study. […]

SMILES: C[C@@H]1Cc2c([nH]c3ccccc23)[C@@H](c2c(F)cc(/C=C/C(=O)O)cc2F)N1CC(C)(C)F [AZD9496]
- cell growth inhibition (CAMA-1 cells): weaker antiproliferative effects
- ER agonism (PgR expression as a marker) [1]: evident in endometrial in vitro and in vivo models
- estradiol-driven gene expression (ER transcriptional activity) [2]: antagonized all estradiol-driven gene expression

SMILES: CCN1CCN(Cc2ccc(Nc3ncc(F)c(-c4cc(F)c5nc(C)n(C(C)C)c5c4)n3)nc2)CC1 [abemaciclib, reference compound]
- reduction of relative TV compared with the vehicle (ST3632 ESR1wt PDX): 46%
- sensitivity of palbociclib-resistant lines [3]: sensitive

SMILES: NC1(C(=O)N[C@@H](CCO)c2ccc(Cl)cc2)CCN(c2nc[nH]c3nccc2-3)CC1 [capivasertib, reference compound]
- tumor growth (ST1799/HI/PBR PDX): could not completely arrest tumor growth

SMILES: CC(=O)c1c(C)c2cnc(Nc3ccc(N4CCNCC4)cn3)nc2n(C2CCCC2)c1=O [palbociclib]
- reduction of relative TV compared with the vehicle (ST3632 ESR1wt PDX): 0%

From paper PMC10690091 (Cancer Research, 2023)
